Measured values as given in PubChem BioAssay AID1963869 (Molecular Pharmacology Branch, DTP, NCI, 2024).

Test system: KRAS patient-derived spheroids with HUVEC/MSC, viability
Assay: Anticancer human tumor 323965-272-R-J2-PDC patient-derived pancreatic carcinoma cell line growth inhibition [KRAS2]
Conditions: for IC50: curve of first compound; for viability, T/C: stronger effect = lower value
Summary of the method: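 Combination screen of spheroid viability in tumor-cell co-cultures with endothelial (HUVEC) and mesenchymal stem cell stroma. Each agent was tested in half-log dilutions, topping at clinical Cmax or at 10 microM without a known Cmax.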

[1] = second compound 0.1 µM, first compound 0.0316 µM
[2] = second compound 0.1 µM, first compound 0.1 µM
[3] = second compound 0.1 µM, first compound 0.316 µM
[4] = second compound 0.1 µM, first compound 1 µM
[5] = second compound 0.1 µM, first compound 3.16 µM
[6] = second compound 0.1 µM, first compound 10 µM
[7] = second compound 0.316 µM, first compound 0.0316 µM
[8] = second compound 0.316 µM, first compound 0.1 µM
[9] = second compound 0.316 µM, first compound 0.316 µM
[10] = second compound 0.316 µM, first compound 1 µM
[11] = second compound 0.316 µM, first compound 3.16 µM
[12] = second compound 0.316 µM, first compound 10 µM
[13] = second compound 1 µM, first compound 0.0316 µM
[14] = second compound 1 µM, first compound 0.1 µM
[15] = second compound 1 µM, first compound 0.316 µM
[16] = second compound 1 µM, first compound 1 µM
[17] = second compound 1 µM, first compound 3.16 µM
[18] = second compound 1 µM, first compound 10 µM
[19] = second compound 3.16 µM, first compound 0.0316 µM
[20] = second compound 3.16 µM, first compound 0.1 µM
[21] = second compound 3.16 µM, first compound 0.316 µM
[22] = second compound 3.16 µM, first compound 1 µM
[23] = second compound 3.16 µM, first compound 3.16 µM
[24] = second compound 3.16 µM, first compound 10 µM
[25] = second compound 10 µM, first compound 0.0316 µM
[26] = second compound 10 µM, first compound 0.1 µM
[27] = second compound 10 µM, first compound 0.316 µM
[28] = second compound 10 µM, first compound 1 µM
[29] = second compound 10 µM, first compound 3.16 µM
[30] = second compound 10 µM, first compound 10 µM
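Further: spheroids exposed to agents for 7 days.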
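Wherever viability, T/C is given: 100% = DMSO vehicle control viability.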

Row | Compound | IC50 (second compound 0.1 µM) [µM] | IC50 (second compound 0.316 µM) [µM] | IC50 (second compound 1 µM) [µM] | IC50 (second compound 3.16 µM) [µM] | IC50 (second compound 10 µM) [µM] | viability, T/C [1] [%] | viability, T/C [2] [%] | viability, T/C [3] [%] | viability, T/C [4] [%] | viability, T/C [5] [%] | viability, T/C [6] [%] | viability, T/C [7] [%] | viability, T/C [8] [%] | viability, T/C [9] [%] | viability, T/C [10] [%] | viability, T/C [11] [%] | viability, T/C [12] [%] | viability, T/C [13] [%] | viability, T/C [14] [%] | viability, T/C [15] [%] | other results
1 | COc1cc(Nc2ncc3c(n2)-c2ccc(Cl)cc2C(c2c(F)cccc2OC)=NC3)ccc1C(=O)O + COc1cc2nc(C)nc(NC(C)c3cc(N)cc(C(F)(F)F)c3)c2cc1OC1CCOC1 | 0.0924 | 0.0735 | < 0.0316 | < 0.0316 | < 0.0316 | 76.5 | 47.3 | 35.6 | 44.1 | 53.4 | 59.1 | 66.2 | 45.3 | 35.7 | 37.5 | 51.5 | 58.5 | 62.2 | 39.6 | 33 | viability, T/C [16]: 38.8%; viability, T/C [17]: 44.9%; viability, T/C [18]: 51.2%; viability, T/C [19]: 56.8%; viability, T/C [20]: 34.4%; viability, T/C [21]: 28.4%; viability, T/C [22]: 37.8%; viability, T/C [23]: 44.3%; viability, T/C [24]: 51.1%; viability, T/C [25]: 63.4%; viability, T/C [26]: 20.3%; viability, T/C [27]: 24%; viability, T/C [28]: 41.6%; viability, T/C [29]: 42.8%; viability, T/C [30]: 36.9%
2 | COc1cc2nccc(Oc3ccc(NC(=O)C4(C(=O)Nc5ccc(F)cc5)CC4)cc3)c2cc1OC + COc1cc2nc(C)nc(NC(C)c3cc(N)cc(C(F)(F)F)c3)c2cc1OC1CCOC1 | > 10 | > 10 | > 10 | 9.98 | 3.89 | 86.5 | 86.5 | 84.1 | 86.5 | 75.7 | 86.2 | 76 | 85.7 | 88 | 82.2 | 84.7 | 75.2 | 84.4 | 79.8 | 84.5 | viability, T/C [16]: 82.8%; viability, T/C [17]: 74.1%; viability, T/C [18]: 66.3%; viability, T/C [19]: 87.1%; viability, T/C [20]: 85.3%; viability, T/C [21]: 95.3%; viability, T/C [22]: 89.6%; viability, T/C [23]: 79%; viability, T/C [24]: 49.5%; viability, T/C [25]: 85.4%; viability, T/C [26]: 93.6%; viability, T/C [27]: 84.9%; viability, T/C [28]: 84.3%; viability, T/C [29]: 59.1%; viability, T/C [30]: 7.87%
3 | O=C(c1cc(Cc2n[nH]c(=O)c3ccccc23)ccc1F)N1CCN(C(=O)C2CC2)CC1 + COc1cc2nc(C)nc(NC(C)c3cc(N)cc(C(F)(F)F)c3)c2cc1OC1CCOC1 | > 10 | > 10 | > 10 | > 10 | > 10 | 101 | 107 | 94.1 | 98.8 | 88 | 59.1 | 90.3 | 81 | 83.5 | 84.9 | 78.9 | 57.7 | 102 | 103 | 95.5 | viability, T/C [16]: 99%; viability, T/C [17]: 94.6%; viability, T/C [18]: 50.2%; viability, T/C [19]: 81.5%; viability, T/C [20]: 82.2%; viability, T/C [21]: 76.1%; viability, T/C [22]: 83.2%; viability, T/C [23]: 76.9%; viability, T/C [24]: 52.5%; viability, T/C [25]: 76.7%; viability, T/C [26]: 76.3%; viability, T/C [27]: 78.8%; viability, T/C [28]: 75.8%; viability, T/C [29]: 75.9%; viability, T/C [30]: 51.2%
